Measurements: patent publication US20230151003A1, “COMPOUNDS AND METHODS OF USE” (Exelixis, Inc., priority 2020, published 2023)

Assays:
Format in all cases: cell-based
Mer = biological target: T1, Mer (Homo sapiens, UniProt Q12866); test: Mer autophosphorylation ELISA in transient transfected 293A cells; settings: Table 3 Cellular Activities; MERTK-transfected 293A cells, phospho-Mer ELISA
T1 construct: host or cells: 293A cells (Thermo Fisher #R70507)
T1 sequence (Q12866 21-999): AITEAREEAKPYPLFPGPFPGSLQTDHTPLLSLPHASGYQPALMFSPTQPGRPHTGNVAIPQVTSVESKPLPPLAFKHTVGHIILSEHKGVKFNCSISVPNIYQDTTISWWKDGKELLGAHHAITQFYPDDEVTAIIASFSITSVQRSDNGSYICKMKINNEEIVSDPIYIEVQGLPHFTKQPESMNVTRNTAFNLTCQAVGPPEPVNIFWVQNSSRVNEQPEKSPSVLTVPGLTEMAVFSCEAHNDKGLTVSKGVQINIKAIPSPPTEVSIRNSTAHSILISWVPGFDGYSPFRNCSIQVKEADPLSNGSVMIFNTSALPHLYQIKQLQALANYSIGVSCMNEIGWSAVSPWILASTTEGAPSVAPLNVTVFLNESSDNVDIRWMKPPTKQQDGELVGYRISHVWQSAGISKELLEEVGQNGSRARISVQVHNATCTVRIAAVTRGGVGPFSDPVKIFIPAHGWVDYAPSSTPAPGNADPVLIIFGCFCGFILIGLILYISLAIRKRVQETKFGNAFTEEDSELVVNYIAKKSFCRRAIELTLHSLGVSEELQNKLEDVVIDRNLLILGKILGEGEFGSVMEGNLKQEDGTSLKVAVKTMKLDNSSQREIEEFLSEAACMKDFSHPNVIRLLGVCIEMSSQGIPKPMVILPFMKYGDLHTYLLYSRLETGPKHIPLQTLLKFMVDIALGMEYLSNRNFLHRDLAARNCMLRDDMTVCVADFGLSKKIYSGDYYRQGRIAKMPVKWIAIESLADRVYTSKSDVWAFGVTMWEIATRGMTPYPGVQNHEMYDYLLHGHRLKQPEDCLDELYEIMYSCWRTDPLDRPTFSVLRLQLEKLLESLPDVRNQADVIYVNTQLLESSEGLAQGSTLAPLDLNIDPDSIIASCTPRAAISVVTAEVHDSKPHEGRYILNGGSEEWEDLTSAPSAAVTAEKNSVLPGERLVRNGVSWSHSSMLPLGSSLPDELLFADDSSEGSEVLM
Method: 293A cells (Thermo Fisher #R70507) were seeded at 1.5×10^6 cells/well onto 100 mm dish (Greiner #664169), in DMEM (Thermo Fisher #11995-040) containing 10% FBS (Thermo Fisher #26140-079), 1% MEM NEAA (Thermo Fisher #11140-050), 1% GlutaMax (Thermo Fisher #35050-061), and 1% Penicillin Streptomycin (Thermo Fisher #15140-122). 293A cells were incubated at 37° C., 5% CO2 for 24 h and then transfected with 6μg MERTK DNA (Genecopoeia #EX-Z8208-M02) using TransIT LT1 transfection reagent (Mirus-Bio #MIR2305). After 24 h incubation, the transfected 293A cells were seeded at 1×10^5 cells/well onto 96-well plates (Corning #3904) in DMEM growth medium overnight. Test compounds were serially diluted to produce an 8-point dose curve in fresh serum-free medium to a final concentration of 0.3% DMSO (vehicle) and added to the cells and incubated for 1 h. Cells were then immediately lysed with 150 μL of cold 1× lysis buffer […], 137 mM sodium chloride, 2 mM EDTA, 10% glycerol, 1% NP-40 alternative, 1 mM activated sodium orthovanadate, 1 mM PefaBloc SC (Sigma-Aldrich #11429868001), protease/phosphatase inhibitor tablet (Thermo Fisher #A32959)]. Lysates were clarified by centrifugation and 50 μL/well added into the human phospho-Mer DuoSet IC ELISA (R&D Systems #DYC2579-2). Assay was performed according to manufacturer's instructions and sample phospho-Mer concentrations were extrapolated using human phospho-Mer control (R&D Systems #841793) as a standard. Positive control wells (100% activity) contained DMSO-treated cell lysates. Negative control wells (0% activity) contained reference inhibitor-treated cell lysates. IC50 values were calculated by nonlinear regression analysis using a 4-parameter logistic curve fit in ActivityBase XE (IDBS).

Met = Met (Homo sapiens, UniProt P08581); test: Met autophosphorylation ELISA in PC-3 cells; set-up: endogenous in cells; host or cells: PC-3 prostate cancer cells (ATCC #CRL-1435); settings: Table 3 Cellular Activities, HGF-stimulated, phospho-Met ELISA, read-out: c-Met IC50
Met, sequence (P08581 25-1390): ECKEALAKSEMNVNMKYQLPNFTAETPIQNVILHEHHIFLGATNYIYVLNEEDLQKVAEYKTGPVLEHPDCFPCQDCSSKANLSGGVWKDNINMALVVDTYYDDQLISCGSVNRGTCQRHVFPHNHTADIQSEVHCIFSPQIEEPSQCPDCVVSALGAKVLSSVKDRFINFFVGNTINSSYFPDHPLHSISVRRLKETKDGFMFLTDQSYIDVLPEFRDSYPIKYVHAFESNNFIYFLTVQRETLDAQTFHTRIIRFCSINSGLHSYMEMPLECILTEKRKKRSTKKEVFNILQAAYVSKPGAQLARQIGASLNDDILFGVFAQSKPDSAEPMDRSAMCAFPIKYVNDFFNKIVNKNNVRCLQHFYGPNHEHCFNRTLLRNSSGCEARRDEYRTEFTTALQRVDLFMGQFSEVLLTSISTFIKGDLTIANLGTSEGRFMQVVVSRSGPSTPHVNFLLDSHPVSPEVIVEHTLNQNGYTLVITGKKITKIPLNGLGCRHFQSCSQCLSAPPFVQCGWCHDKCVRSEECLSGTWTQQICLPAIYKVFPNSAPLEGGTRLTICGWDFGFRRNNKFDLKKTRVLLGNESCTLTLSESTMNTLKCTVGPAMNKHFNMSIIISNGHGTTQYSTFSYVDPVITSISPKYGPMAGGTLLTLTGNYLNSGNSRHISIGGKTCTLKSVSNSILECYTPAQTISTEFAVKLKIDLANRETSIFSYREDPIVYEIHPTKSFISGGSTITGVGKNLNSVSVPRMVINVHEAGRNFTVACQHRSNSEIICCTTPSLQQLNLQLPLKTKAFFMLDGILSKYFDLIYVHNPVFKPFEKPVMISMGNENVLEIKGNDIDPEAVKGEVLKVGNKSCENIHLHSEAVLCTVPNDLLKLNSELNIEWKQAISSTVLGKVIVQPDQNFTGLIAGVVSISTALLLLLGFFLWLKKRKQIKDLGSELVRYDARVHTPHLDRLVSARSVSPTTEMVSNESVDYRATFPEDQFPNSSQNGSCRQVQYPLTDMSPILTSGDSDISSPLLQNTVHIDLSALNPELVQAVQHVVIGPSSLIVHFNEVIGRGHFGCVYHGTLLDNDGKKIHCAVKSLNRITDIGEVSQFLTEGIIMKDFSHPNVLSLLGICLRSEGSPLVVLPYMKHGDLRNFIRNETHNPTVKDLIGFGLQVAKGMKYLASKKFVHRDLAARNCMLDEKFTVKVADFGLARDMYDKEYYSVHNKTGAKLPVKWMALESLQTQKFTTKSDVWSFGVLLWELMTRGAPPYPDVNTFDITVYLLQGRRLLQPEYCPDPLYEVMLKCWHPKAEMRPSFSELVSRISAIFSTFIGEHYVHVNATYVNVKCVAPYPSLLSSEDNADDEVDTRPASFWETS
Method: PC-3 prostate cancer cells (ATCC #CRL-1435) were seeded at 4×10^4 cells/well onto 24-well plates (Greiner #662165), in DMEM (Thermo Fisher #11995-040) containing 10% FBS (Thermo Fisher #26140-079), 1% MEM NEAA (Thermo Fisher #11140-050), 1% GlutaMax (Thermo Fisher #35050-061), and 1% Penicillin Streptomycin (Thermo Fisher #15140-122). PC-3 cells were incubated at 37° C., 5% CO2 for 24 h and then starved for 3 h in serum-free medium. Test compounds were serially diluted to produce an 8-point dose curve in fresh serum-free medium to a final concentration of 0.3% DMSO (vehicle) and added to the cells and incubated for 1 h. Cells were then stimulated with 100 ng/mL recombinant human HGF (R&D Systems #294-HG-250) for 10 min, washed with cold PBS, and immediately lysed with 130 μL of cold 1× lysis buffer [20 mM Tris, 137 mM sodium chloride, 2 mM EDTA, 10% glycerol, 1% NP-40 alternative, 1 mM activated sodium orthovanadate, 1 mM PefaBloc SC (Sigma-Aldrich #11429868001), protease/phosphatase inhibitor tablet (Thermo Fisher #A32959)]. Lysates were clarified by centrifugation and 100 μL/well added into the PathScan phospho-Met (panTyr) Sandwich ELISA (Cell Signaling Technology #7333). Assay was performed according to manufacturer's instructions. Positive control wells (100% activity) contained HGF-stimulated, DMSO-treated cell lysates. Negative control wells (0% activity) contained HGF-stimulated, reference inhibitor-treated cell lysates. IC50 values were calculated by nonlinear regression analysis using a 4-parameter logistic curve fit in ActivityBase XE (IDBS).

KDR = KDR (Homo sapiens, UniProt P35968); test: KDR autophosphorylation ELISA in HUVEC cells; set-up: endogenous in cells; host or cells: HUVEC (Lonza #C2519A); settings: Table 3 Cellular Activities, VEGF165-stimulated, phospho-KDR ELISA
KDR, sequence (P35968 20-1356): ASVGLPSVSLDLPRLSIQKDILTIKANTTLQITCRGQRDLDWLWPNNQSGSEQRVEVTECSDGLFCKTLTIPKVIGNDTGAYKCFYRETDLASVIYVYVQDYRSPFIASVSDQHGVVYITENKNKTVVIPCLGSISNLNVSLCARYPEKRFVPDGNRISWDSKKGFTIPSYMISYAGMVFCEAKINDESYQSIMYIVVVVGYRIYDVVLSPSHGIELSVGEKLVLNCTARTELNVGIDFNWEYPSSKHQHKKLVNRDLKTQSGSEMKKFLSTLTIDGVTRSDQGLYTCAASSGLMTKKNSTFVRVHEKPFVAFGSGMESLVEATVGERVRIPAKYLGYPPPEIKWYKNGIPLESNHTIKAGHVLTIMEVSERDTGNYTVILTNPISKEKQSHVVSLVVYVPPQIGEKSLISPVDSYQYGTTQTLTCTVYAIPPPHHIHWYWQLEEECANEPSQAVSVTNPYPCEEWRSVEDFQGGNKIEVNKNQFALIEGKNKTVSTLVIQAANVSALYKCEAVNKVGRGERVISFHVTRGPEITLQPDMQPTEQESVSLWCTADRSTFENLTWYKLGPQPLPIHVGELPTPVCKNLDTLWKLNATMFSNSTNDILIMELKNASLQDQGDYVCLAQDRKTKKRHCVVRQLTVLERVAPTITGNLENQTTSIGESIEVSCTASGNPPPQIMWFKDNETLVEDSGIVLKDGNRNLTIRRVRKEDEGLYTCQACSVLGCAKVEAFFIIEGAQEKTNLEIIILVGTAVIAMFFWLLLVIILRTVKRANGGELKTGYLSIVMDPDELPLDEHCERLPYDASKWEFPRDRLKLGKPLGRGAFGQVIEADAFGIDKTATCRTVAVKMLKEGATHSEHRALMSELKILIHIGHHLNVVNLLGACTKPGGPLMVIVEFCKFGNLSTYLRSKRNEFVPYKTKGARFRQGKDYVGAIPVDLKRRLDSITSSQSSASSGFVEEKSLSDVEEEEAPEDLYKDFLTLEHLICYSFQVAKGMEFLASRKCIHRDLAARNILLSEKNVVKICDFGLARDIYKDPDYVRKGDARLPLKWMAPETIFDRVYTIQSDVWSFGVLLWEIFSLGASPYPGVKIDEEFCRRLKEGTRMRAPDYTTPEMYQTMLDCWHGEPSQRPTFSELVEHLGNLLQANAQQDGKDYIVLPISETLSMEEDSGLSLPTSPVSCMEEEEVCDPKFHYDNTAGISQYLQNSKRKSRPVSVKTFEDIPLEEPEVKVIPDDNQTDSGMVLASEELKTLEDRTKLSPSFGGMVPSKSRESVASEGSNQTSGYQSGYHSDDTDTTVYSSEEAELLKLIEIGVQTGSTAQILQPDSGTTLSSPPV
Method: Human umbilical vein endothelial cells or HUVEC (Lonza #C2519A) were seeded at 2×10^4 cells/well onto 96-well plates (Corning #3904), in EGM-2 growth medium (Lonza #CC-3162) containing 1% Penicillin Streptomycin (Thermo Fisher #15140-122). HUVEC cells were incubated at 37° C., 5% CO2 for 24 h and then starved for 24 h in serum-free EBM-2 basal medium (Lonza #CC-3156) containing 1% Penicillin Streptomycin. Test compounds were serially diluted to produce an 8-point dose curve in fresh serum-free medium to a final concentration of 0.3% DMSO (vehicle) and added to the cells and incubated for 1 h. Cells were then stimulated with 100 ng/mL recombinant human VEGF165 (R&D Systems #293-VE-500) for 5 min, washed with cold PBS, and immediately lysed with 130 μL of cold 1× lysis buffer [20 mM Tris, 137 mM sodium chloride, 2 mM EDTA, 10% glycerol, 1% NP-40 alternative, 1 mM activated sodium orthovanadate, 1 mM PefaBloc SC (Sigma-Aldrich #11429868001), protease/phosphatase inhibitor tablet (Thermo Fisher #A32959)]. Lysates were collected and 100 μL/well added into the human phospho-KDR DuoSet IC ELISA (R&D Systems #DYC1766-2). Assay was performed according to manufacturer's instructions and sample phospho-KDR concentrations were extrapolated using human phospho-KDR control (R&D Systems #841421) as a standard. Positive control wells (100% activity) contained VEGF165-stimulated, DMSO-treated cell lysates. Negative control wells (0% activity) contained non-stimulated cell lysates. IC50 values were calculated by nonlinear regression analysis using a 4-parameter logistic curve fit in ActivityBase XE (IDBS).

SMILES | IC50 (Mer) | IC50 (Met) | IC50 (KDR)
CCOCCOCCOc1cc(-n2c(C)ccc(C(=O)Nc3ccc(Oc4ccnc5cc(OC)c(OC)nc45)c(F)c3)c2=O)ccn1 [Compound 224, N-[4-[(6,7-Dimethoxy-1,5-naphthyridin-4-yl)oxy]-3-fluorophenyl]-1-[2-[2-(2-ethoxyethoxy)ethoxy]pyridin-4-yl]-6-methyl-2-oxopyridine-3-carboxamide] | ≤ 100 nM | ≤ 100 nM | ≤ 100 nM
COc1cc2nccc(Oc3ccc(NC(=O)c4cc(C(C)=O)c(C)n(-c5ccoc5)c4=O)cc3)c2nc1OC [Compound 239, 5-Acetyl-N-[4-[(6,7-dimethoxy-1,5-naphthyridin-4-yl)oxy]phenyl]-1-(furan-3-yl)-6-methyl-2-oxopyridine-3-carboxamide] | 300 to 1000 nM | 300 to 1000 nM | 300 to 1000 nM
COc1cc2nccc(Oc3ccc(NC(=O)c4ccc(C)n(-c5ccnc(OC(C)C)c5)c4=O)cc3F)c2nc1OC [Compound 225, N-[4-[(6,7-Dimethoxy-1,5-naphthyridin-4-yl)oxy]-3-fluorophenyl]-6-methyl-2-oxo-1-(2-propan-2-yloxypyridin-4-yl)pyridine-3-carboxamide] | ≤ 100 nM | ≤ 100 nM | 300 to 1000 nM
COc1cnc2c(Oc3ccc(NC(=O)c4c(C)n(C)c(C)c(-c5ccco5)c4=O)cc3F)ccnc2c1 [Compound 162, N-[3-Fluoro-4-[(7-methoxy-1,5-naphthyridin-4-yl)oxy]phenyl]-5-(furan-2-yl)-1,2,6-trimethyl-4-oxopyridine-3-carboxamide] | ≤ 100 nM | ≤ 100 nM | 300 to 1000 nM
COc1cc2nccc(Oc3ccc(NC(=O)c4c5n(c(C)c(-c6ccoc6)c4=O)CCOC5)cc3F)c2nc1OC [Compound 308, N-[4-[(6,7-Dimethoxy-1,5-naphthyridin-4-yl)oxy]-3-fluorophenyl]-7-(furan-3-yl)-6-methyl-8-oxo-3,4-dihydro-1H-pyrido [2,1-c][1,4]oxazine-9-carboxamide] | ≤ 100 nM | ≤ 100 nM | 300 to 1000 nM
COCc1nc(C)c(-c2ncccc2C)c(O)c1C(=O)Nc1ccc(Oc2ccnc3cc(OC)c(OC)nc23)c(F)c1 [Compound 196, N-[4-[(6,7-Dimethoxy-1,5-naphthyridin-4-yl)oxy]-3-fluorophenyl]-4-hydroxy-2-(methoxymethyl)-6-methyl-5-(3-methylpyridin-2-yl)pyridine-3-carboxamide] | ≤ 100 nM | ≤ 100 nM | ≤ 100 nM
